Assay [1] can be described thus: Uptake of 2-deoxyglucose into L-6 myocytes, measurements were taken in absence of insulin (basal), assayed at 100 uM. The assay is classed as functional.
Assay [2] is described as follows: Uptake of 2-deoxyglucose into L-6 myocytes, measurements were taken in presence of insulin (+ins), assayed at 100 uM. Format: functional.
Assay [3] has as its target T1, Tyrosine-protein phosphatase non-receptor type 1 (Homo sapiens) (UniProt P18031).
T1 sequence (whole entry): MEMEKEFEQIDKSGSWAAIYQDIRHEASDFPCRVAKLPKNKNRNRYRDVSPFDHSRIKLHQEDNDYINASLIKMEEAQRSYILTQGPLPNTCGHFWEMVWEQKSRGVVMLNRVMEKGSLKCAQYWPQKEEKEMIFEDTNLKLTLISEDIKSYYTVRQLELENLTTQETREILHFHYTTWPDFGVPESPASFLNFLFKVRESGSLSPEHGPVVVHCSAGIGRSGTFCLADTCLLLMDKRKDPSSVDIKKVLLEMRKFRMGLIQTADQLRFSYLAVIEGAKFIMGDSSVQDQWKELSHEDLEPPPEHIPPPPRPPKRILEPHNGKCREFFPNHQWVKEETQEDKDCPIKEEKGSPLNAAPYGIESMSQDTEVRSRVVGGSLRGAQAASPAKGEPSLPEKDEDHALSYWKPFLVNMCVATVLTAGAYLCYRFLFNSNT
Put plainly: Percent inhibition of Protein Tyrosine Phosphatase 1B (PTP 1B) assayed at 100 uM.

Assay [4] deals with Receptor-type tyrosine-protein phosphatase F (Homo sapiens) (UniProt P10586). Put plainly: Percent inhibition of Protein-tyrosine phosphatase Lar assayed at 100 uM.
Receptor-type tyrosine-protein phosphatase F (Homo sapiens), sequence (P10586 whole entry): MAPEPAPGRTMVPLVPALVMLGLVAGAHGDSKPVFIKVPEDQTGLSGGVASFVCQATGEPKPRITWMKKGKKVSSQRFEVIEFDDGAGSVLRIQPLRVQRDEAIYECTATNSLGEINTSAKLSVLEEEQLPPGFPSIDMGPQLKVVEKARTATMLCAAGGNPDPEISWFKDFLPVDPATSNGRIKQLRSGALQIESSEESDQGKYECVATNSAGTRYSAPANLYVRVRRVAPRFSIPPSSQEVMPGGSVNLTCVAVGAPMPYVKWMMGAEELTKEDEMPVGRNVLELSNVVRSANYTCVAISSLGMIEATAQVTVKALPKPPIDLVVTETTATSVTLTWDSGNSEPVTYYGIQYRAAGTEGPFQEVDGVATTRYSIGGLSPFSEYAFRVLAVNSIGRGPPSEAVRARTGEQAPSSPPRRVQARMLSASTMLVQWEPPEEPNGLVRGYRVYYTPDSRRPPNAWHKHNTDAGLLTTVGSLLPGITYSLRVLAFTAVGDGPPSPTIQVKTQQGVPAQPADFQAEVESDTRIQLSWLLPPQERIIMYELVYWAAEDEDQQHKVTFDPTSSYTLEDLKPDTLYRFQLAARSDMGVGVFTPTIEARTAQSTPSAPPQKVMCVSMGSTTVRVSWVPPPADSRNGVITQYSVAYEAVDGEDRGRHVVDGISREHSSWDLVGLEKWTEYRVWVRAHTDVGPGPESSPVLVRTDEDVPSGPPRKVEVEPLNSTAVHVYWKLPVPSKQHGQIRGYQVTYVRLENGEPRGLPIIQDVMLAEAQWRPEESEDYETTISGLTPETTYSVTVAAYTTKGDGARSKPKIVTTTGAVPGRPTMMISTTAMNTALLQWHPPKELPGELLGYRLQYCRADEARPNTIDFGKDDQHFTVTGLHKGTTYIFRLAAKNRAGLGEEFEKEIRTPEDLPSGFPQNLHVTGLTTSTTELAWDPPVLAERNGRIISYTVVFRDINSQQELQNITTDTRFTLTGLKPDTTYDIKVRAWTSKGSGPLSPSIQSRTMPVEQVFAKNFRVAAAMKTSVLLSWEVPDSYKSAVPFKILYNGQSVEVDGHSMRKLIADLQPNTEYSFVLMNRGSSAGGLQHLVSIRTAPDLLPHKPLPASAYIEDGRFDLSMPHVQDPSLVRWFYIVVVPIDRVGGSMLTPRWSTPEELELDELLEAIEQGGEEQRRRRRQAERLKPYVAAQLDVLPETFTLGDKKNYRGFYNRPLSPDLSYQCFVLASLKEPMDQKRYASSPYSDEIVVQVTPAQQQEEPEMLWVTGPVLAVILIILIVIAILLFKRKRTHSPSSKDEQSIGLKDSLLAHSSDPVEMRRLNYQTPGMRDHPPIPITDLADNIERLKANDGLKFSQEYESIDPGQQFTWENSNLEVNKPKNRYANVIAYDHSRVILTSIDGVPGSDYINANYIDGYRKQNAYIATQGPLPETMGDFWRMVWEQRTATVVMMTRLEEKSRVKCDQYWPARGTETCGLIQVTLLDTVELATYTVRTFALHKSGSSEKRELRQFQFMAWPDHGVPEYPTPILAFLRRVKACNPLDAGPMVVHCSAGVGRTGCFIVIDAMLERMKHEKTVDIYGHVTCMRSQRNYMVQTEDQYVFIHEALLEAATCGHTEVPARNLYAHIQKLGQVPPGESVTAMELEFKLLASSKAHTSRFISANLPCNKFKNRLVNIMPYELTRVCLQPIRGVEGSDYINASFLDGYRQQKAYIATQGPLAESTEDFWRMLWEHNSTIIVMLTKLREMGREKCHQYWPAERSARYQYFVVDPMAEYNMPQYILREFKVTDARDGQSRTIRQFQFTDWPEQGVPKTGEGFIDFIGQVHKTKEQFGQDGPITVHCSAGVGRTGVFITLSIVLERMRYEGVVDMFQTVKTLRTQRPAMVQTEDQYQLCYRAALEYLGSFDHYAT
The target of assay [5] is T2, Tyrosine-protein phosphatase non-receptor type 11 (Mus musculus) (UniProt P35235).
T2 sequence (whole entry): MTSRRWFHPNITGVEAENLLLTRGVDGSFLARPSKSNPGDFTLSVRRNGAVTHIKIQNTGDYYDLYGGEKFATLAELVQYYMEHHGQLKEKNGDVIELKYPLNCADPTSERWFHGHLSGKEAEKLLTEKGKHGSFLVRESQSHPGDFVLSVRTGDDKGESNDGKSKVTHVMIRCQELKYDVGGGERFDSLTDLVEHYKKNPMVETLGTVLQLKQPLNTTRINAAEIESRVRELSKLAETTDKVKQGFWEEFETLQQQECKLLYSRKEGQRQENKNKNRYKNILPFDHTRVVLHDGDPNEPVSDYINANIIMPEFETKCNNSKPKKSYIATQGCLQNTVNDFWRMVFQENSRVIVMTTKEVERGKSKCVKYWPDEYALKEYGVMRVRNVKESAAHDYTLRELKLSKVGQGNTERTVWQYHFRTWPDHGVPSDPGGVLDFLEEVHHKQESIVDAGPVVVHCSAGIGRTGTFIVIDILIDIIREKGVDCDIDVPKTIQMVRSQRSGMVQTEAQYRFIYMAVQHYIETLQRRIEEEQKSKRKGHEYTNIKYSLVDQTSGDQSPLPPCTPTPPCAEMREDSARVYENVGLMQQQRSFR
The assay is described as follows: Percent inhibition of Tyrosine phosphatase SHP2 SH2 domain containing PTP involved in insulin uM. To be noted: concentration not given here. Set-up: concentration or dose not given beside the values.

Assay [6] concerns the target T3, Tyrosine-protein phosphatase non-receptor type 1 (Rattus norvegicus) (UniProt P20417).
T3 sequence (whole entry): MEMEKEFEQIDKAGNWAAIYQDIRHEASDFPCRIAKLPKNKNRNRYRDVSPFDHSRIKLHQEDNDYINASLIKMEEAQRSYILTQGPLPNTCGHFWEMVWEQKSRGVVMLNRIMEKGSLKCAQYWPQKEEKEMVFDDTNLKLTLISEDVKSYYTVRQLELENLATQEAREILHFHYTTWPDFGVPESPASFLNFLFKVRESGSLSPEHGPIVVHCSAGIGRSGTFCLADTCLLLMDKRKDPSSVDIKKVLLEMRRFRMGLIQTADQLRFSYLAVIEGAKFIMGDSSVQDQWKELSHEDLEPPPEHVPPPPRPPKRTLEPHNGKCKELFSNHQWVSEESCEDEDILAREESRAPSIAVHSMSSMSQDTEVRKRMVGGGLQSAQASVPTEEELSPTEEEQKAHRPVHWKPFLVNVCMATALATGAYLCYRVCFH
The assay is described as follows: Percent inhibition of Protein-tyrosine phosphatase 1 (PTP) assayed at 100 uM.

By inhibition is commonly meant the change of the read-out against control, counted positive when it falls. For `CCCCCNC(=O)[C@H](Cc1ccc(OCC(=O)O)c(C(=O)O)c1)NC(=O)[C@@H](Cc1ccccc1)NC(=O)OC(C)(C)C`, the “2-deoxyglucose uptake, % of control” value came out at 107% in assay [1] and 89% in assay [2]. The inhibition worked out at 19% in assay [3], 0% in assay [4] and 0% in assay [5].
Take `CCCCCNC(=O)C(Cc1ccc(OCC(=O)OC)c(C(=O)OC)c1)NC(=O)[C@H](Cc1ccccc1)NC(=O)OC(C)(C)C` (stereo partly drawn): the “2-deoxyglucose uptake, % of control” value is recorded as 114% in assay [1] and 72% in assay [2]. The inhibition in assay [3] came to 0%; in assay [4] it was 0%; in assay [5], 1%.
Take `CCCCCNC(=O)C(Cc1ccc(OCC(=O)O)c(C(=O)O)c1)NC(=O)[C@H](Cc1ccccc1)NC(=O)CCC(=O)O` (stereo partly drawn): the “2-deoxyglucose uptake, % of control” value in assay [1] worked out at 105%; in assay [2], 83%. The inhibition turned out to be 93% in assay [3], 0% in assay [4] and 10% in assay [5].
With `CCCCCNC(=O)[C@H](Cc1ccc(OC(C(=O)O)C(=O)O)cc1)NC(=O)[C@H](Cc1ccc(C(=O)c2ccccc2)cc1)NC(=O)CCC(=O)O`, the inhibition was found to be 98% in assay [3], 98% in assay [6], 26% in assay [4] and 71% in assay [5].
Regarding `CCCCCNC(=O)C(Cc1ccc(OC(C(=O)O)C(=O)O)cc1)NC(=O)[C@H](CC(=O)O)NC(=O)CCC(=O)O` (stereo partly drawn), the inhibition in assay [3] came out at 95%; in assay [6] it was 96%; in assay [4], 7%; in assay [5], 25%.
In the case of `CCCCCNC(=O)C(Cc1ccc(OCC(=O)O)c(C(=O)O)c1)NC(=O)CCC(=O)O` (stereo not drawn), the inhibition in assay [3] came out at 87%; in assay [6], 93%; in assay [4], 0%; in assay [5], 5%.
Turning to `CCCCCNC(=O)C(Cc1ccc(OC(C(=O)O)C(=O)O)cc1)NC(=O)[C@H](C)NC(=O)OC(C)(C)C` (stereo partly drawn), the inhibition was 83% in assay [3], 76% in assay [6], 0% in assay [4] and 3% in assay [5].
In the case of `CCCCCNC(=O)C(Cc1ccc(OCC(N)=O)c(C(=O)O)c1)NC(=O)CCC(=O)O` (stereo not drawn), the inhibition amounted to 5% in assay [3], 16% in assay [6], 0% in assay [4] and 2% in assay [5].
For `CCCCCNC(=O)C(Cc1ccc(OC(C(=O)O)C(=O)O)cc1)NC(=O)CC1(CC(=O)O)CCCC1` (stereo not drawn), the inhibition amounted to 72% in assay [6], 9% in assay [4] and 18% in assay [5].
In the case of `CCCCCNC(=O)C(Cc1ccc(OCC(=O)OC)c(C(=O)OC)c1)NC(=O)[C@H](Cc1ccccc1)NC(=O)CCC(=O)OC` (stereo partly drawn), the entries for the “2-deoxyglucose uptake, % of control” value in assay [1] and in assay [2] were 225% and 77%, respectively. Also, the inhibition in assay [3] was 0%; in assay [4], 3%; in assay [5] it was 0%.
With `CCCCCNC(=O)C(Cc1ccc(OCC(=O)O)c(C(=O)O)c1)NC(=O)[C@H](Cc1ccccc1)NC(=O)OC(C)(C)C` (stereo partly drawn), the “2-deoxyglucose uptake, % of control” value is 81% in assay [1] and 108% in assay [2]. In addition, the inhibition in assay [3] was determined as 78%; in assay [6], 84%; in assay [4] it was 0%; in assay [5] it was 2%.
`CCCCCCNC(=O)C(Cc1ccc(OC(C(=O)O)C(=O)O)cc1)NC(=O)CCC(=O)O` (stereo not drawn): the inhibition was found to be 74% in assay [6], 5% in assay [4] and 8% in assay [5].
As to `CCCCCNC(=O)C(Cc1ccc(OC(C(=O)O)C(=O)O)cc1)NC(=O)[C@H](Cc1ccccc1)NC(=O)OC(C)(C)C` (stereo partly drawn), the inhibition in assay [3] worked out at 91%; in assay [6], 88%; in assay [4], 27%; in assay [5], 10%.
With `CCCCNC(=O)C(Cc1ccc(OC(C(=O)O)C(=O)O)cc1)NC(=O)CCC(=O)O` (stereo not drawn), the inhibition in assay [6] was 37%; in assay [4], 5%; in assay [5], 1%.
With `CCOC(CNC(=O)C(Cc1ccc(OC(C(=O)O)C(=O)O)cc1)NC(=O)CCC(=O)O)OCC` (stereo not drawn), the values for the inhibition in assay [6], in assay [4] and in assay [5] were 46%, 3% and 11%, respectively.
For the compound `CCCCCNC(=O)C(Cc1ccc(OC(C(=O)O)C(=O)O)cc1)NC(=O)COCC(=O)O` (stereo not drawn), the inhibition was determined as 53% in assay [6], 5% in assay [4] and 8% in assay [5].
Consider `CCCCCNC(=O)C(Cc1ccc(OCC(=O)O)c(C(N)=O)c1)NC(=O)CCC(=O)O` (stereo not drawn), for which the inhibition was 11% in assay [6], 0% in assay [4] and 1% in assay [5].
On the same counts, the results for `O=C(O)CCC(=O)NC(Cc1ccc(OC(C(=O)O)C(=O)O)cc1)C(=O)NCCC(c1ccccc1)c1ccccc1` (stereo not drawn) are 45%, 11% and 9%.
On to `CCCCCNC(=O)C(Cc1ccc(OC(C(=O)O)C(=O)O)cc1)NC(=O)C1C2CCC(C2)[C@@H]1C(=O)O` (stereo partly drawn), for which the inhibition was 37% in assay [6], 8% in assay [4] and 5% in assay [5].
As for `CCCCCNC(=O)C(Cc1ccc(OC(C(=O)O)C(=O)O)cc1)NC(=O)[C@H](CCC(=O)O)NC(=O)CCC(=O)O` (stereo partly drawn), the inhibition in assay [6] was determined as 96%; in assay [4], 10%; in assay [5] it was 28%.
On the same counts, the results for `CC(C)CCNC(=O)C(Cc1ccc(OC(C(=O)O)C(=O)O)cc1)NC(=O)CCC(=O)O` (stereo not drawn) are 48%, 5% and 7%.
For `CCCCC(N)C(=O)NC(=O)C(Cc1ccc(OC(C(=O)O)C(=O)O)cc1)NC(=O)CCC(=O)O` (stereo not drawn) the same measures were 93%, 4% and 48%.
As for `O=C(O)CCC(=O)NC(Cc1ccc(OC(C(=O)O)C(=O)O)cc1)C(=O)NCc1ccc2c(c1)OCO2` (stereo not drawn), the results for the inhibition in assay [6], in assay [4] and in assay [5] were 63%, 6% and 12%, respectively.
Consider `CCCCCNC(=O)C(Cc1ccc(OC(C(=O)O)C(=O)O)cc1)NC(=O)[C@H](Cc1ccccc1)NC(=O)CCC(=O)O` (stereo partly drawn), for which the inhibition in assay [3] was found to be 99%; in assay [6], 97%; in assay [4], 23%; in assay [5], 44%.
Turning to `CCCCCNC(=O)C(Cc1ccc(OCC(=O)O)cc1)NC(=O)CCC(=O)O` (stereo not drawn), the results for the inhibition in assay [6], in assay [4] and in assay [5] were 14%, 0% and 0%, respectively.
For the compound `O=C(O)CCC(=O)NC(Cc1ccc(OC(C(=O)O)C(=O)O)cc1)C(=O)NCCCn1ccnc1` (stereo not drawn), the inhibition in assay [6] worked out at 26%; in assay [4] it was 3%; in assay [5], 1%.
For `CCCCCNC(=O)[C@@H](Cc1ccc(OC(C(=O)O)C(=O)O)cc1)NC(=O)CCC(=O)O` the same measures were 39%, 1% and 4%.
Turning to `CCCCCNC(=O)C(Cc1ccc(OC(C(=O)O)C(=O)O)cc1)NC(=O)CC(=O)O` (stereo not drawn), the inhibition in assay [6] was 74%; in assay [4], 7%; in assay [5], 13%.
As for `CCCCCNC(=O)C(Cc1ccc(OC(C(=O)O)C(=O)O)cc1)NC(=O)[C@H]1CCCC[C@H]1C(=O)O` (stereo partly drawn), the inhibition in assay [6] came out at 62%; in assay [4] it was 8%; in assay [5], 13%.
For `CCCCCNC(=O)C(Cc1ccc(OC(C(=O)O)C(=O)O)cc1)NC(=O)[C@H](COc1ccc(Cc2cc(Cl)ccc2Cl)cc1)NC(=O)CCC(=O)O` (stereo partly drawn) the same measures were 98%, 33% and 28%.

The values are drawn from ChEMBL document CHEMBL1135703, “Synthesis and biological activity of a novel class of small molecular weight peptidomimetic competitive inhibitors of protein tyrosine phosphatase 1B” (2002).
